Assay results as given in patent publication US20090209560A1, “ANTI-INFLAMMATION ACTIVITY OF NEWLY SYNTHESIZED XANTHINE DERIVATIVES KMUP-1 AND KMUP-3” (KAOHSIUNG MEDICAL UNIVERSITY, priority 2006, published 2009).

What was measured:
Type in all cases: cell-based, rat
PKA = PKA protein expression by immunoblotting in TNF-α-exposed TSMCs; conditions: TSMCs with TNF-α 100 ng/ml; for effect on TNF-α-induced increases of PKA protein: 10 μM, FIG. 8; for effect on TNF-α-increased expression of PKA protein: 0.1-100 μM, FIG. 7(A) as cited in text
Method: (§1) The tracheal smooth muscle cell (TSM) culture is prepared from male Wistar rats purchased from the National Laboratory Animal Breeding and Research Center (Taipei, Taiwan).
(§2) The Wistar rats were injected intraperitoneally with a lethal dose of pentobarbital. The tracheas were excised and cut longitudinally through the cartilage. Using a dissecting microscope, TSM strips were dissected from the surrounding parenchyma. The epithelium was removed from the luminal surface, and bands of TSM were gently separated from the underlying connective tissue. The TSM strips were then chopped into small sections (1 mm^3) and incubated in Hank's balanced salt solution (NaCl, 138 mM; NaHCO3, 4 mM; KCl, 5 mM; KH2PO4, 0.3 mM; Na2HPO4, 0.3 mM; glucose, 1.0 mM) with 0.05% elastase type IV and 0.2% collagenase type IV (Invitrogen, Carlsbad, Calif.) for 30 min at 37° C. with gentle shaking. The solution of dissociated smooth muscle cells was centrifuged (6 min at 500 g) and the pellet was resuspended in 1:1 Dulbecco's modified Eagle's medium-Ham's F-12 medium supplemented with 10% fetal bovine serum (FBS), 0.244% NaHCO3, and 1% penicillin/streptomycin. Cells were cultured in a condition with or without KMUP-1, KMUP-3 and other negative or positive control agents, in 25 cm^2 flasks at 37° C. in humidified air containing 5% CO2. The medium was changed every 2-3 days.
(§3) To investigate the effects of TNF-α on PKG and PKA proteins, TSMCs were incubated with TNF-α (100 ng/ml) for 1, 3, 6, 9, 12, 18 and 24 hr, and the levels of PKG and PKA proteins were measured by immunoblotting. […] To investigate the effects of KMUP-1, KMUP-3, and the other PDE5 inhibitors zaprinast and exogenous 8-Br-cGMP on the TNF-α mediated pathway, TSMCs were incubated with TNF-α (100 ng/ml) and either one of the mentioned chemicals.

nitrite/nitrate (NO) = experiment: NO level measured by nitrite/nitrate in TSMC culture medium (colorimetric assay); conditions: 10 μM, 20 min pretreatment, then TNF-α 100 ng/ml for 9 hrs; FIG. 11
Method: as §1, §2
Exposure of TSMCs to TNF-α (100 ng/ml) for 9 hrs led to accumulation of nitrite and nitrate in the culture medium, indicating the release of NO. Please refer to the FIG. 11, TSMCs were pretreated with KMUP-1, KMUP-3, 8-Br-cGMP and zaprinast for 20 minutes, and were further incubated in the presence of TNF-α (100 ng/ml) for 9 hrs. The concentrations of nitrite and nitrate (stable breakdown product of NO) of each sample were analyzed using nitrite/nitrate colorimetric assay kits (Cayman Chemical Co.) and run in duplicate.

PKG = PKG protein expression by immunoblotting in TNF-α-exposed TSMCs; conditions: TSMCs with TNF-α 100 ng/ml; for effect on TNF-α-induced decreases of PKG protein: 10 μM, FIG. 8; for effect on TNF-α-induced decreases of PKG protein expression: concentration series, FIG. 7(B) as cited in text
Method: as §1, §2, §3

iNOS = iNOS protein expression by immunoblotting in TNF-α-exposed TSMCs; conditions: TSMCs with TNF-α 100 ng/ml
Method: as §1, §2
(§4) To investigate the effects of TNF-α on iNOS and sGC proteins, TSMCs were incubated with TNF-α (100 ng/ml) for 1, 3, 6, 9, 12, 18 and 24 hr, and the levels of iNOS and sGC subunit proteins were measured by immunoblotting. […] In contrast to the increase expression of iNOS protein in FIG. 2, TNF-α in FIG. 3 decreased the expression of sGCα1 and sGCβ1 proteins in a time-dependent manner, with the maximal inhibition achieved at 9 hr. To investigate the effects of KMUP-1, KMUP-3, and the other PDE5 inhibitors zaprinast and exogenous 8-Br-cGMP on the TNF-α mediated pathway, TSMCs were incubated with TNF-α (100 ng/ml) and either one of the mentioned chemicals.

sGCα1 and sGCβ1 proteins = experiment: sGC subunit protein expression by immunoblotting in TNF-α-exposed TSMCs; conditions: 10 μM; TSMCs with TNF-α 100 ng/ml; FIG. 5
Method: as §1, §2, §4

cAMP = experiment: Intracellular cAMP level in TSMCs (radioimmunoassay); conditions: FIG. 10(B)
Method: as §1, §2
(§5) Intracellular cGMP production was decreased and reaching minimal production at 9 hr in TSMCs in the presence of TNF-α (100 ng/ml). Intracellular concentrations of cAMP and cGMP in TSMC were measured to investigate the effects of KMUP-1, KMUP-3, and the other PDE5 inhibitor zaprinast or the isoproterenol thereto. As to the level of cGMP, TSMCs were pretreated with KMUP-1, KMUP-3, and the other PDE5 inhibitor zaprinast for 20 minutes and were further incubated in the presence of TNF-α (100 ng/ml) for 9 hrs. The concentrations of cGMP of each sample were measured using cGMP-[125I] radioimmunoassay kits (GE Healthcare Bio-Sciences Corp., Piscataway, N.J.). […] As to the level of the cAMP, TSMCs were incubated with isoproterenol, KMUP-1, and KMUP-3 for 20 min, and further incubated in the absence or presence of TNF-α (100 ng/ml) for 9 hrs, where the concentrations of cAMP of each sample were measured using cAMP-[125I] radioimmunoassay kits (GE Healthcare Bio-Sciences Corp., Piscataway, N.J.).

cGMP = experiment: Intracellular cGMP level in TSMCs (radioimmunoassay); conditions: 10 μM, 20 min pretreatment, then TNF-α 100 ng/ml for 9 hrs; FIG. 10(A)
Method: as §1
as §2, with “Cells were cultured in a condition with or without KMUP-1, KMUP-3 and other negative or positive control agents, in 25 cm^2 flasks at 37° C. in humidified air containing 5% CO2. The medium was changed every 2-3 days.” left out
as §5, with “As to the level of cGMP, TSMCs were pretreated with KMUP-1, KMUP-3, and the other PDE5 inhibitor zaprinast for 20 minutes and were further incubated in the presence of TNF-α (100 ng/ml) for 9 hrs.” left out

PGE2 and 6-keto-PGF1a = PGE2 and 6-keto-PGF1a release from TNF-α-exposed TSMCs (EIA); conditions: 10 μM, 20 min pretreatment, then TNF-α 100 ng/ml for 24 hrs; FIG. 12
Method: as §1, §2
Incubation of TSMCs with TNF-α (100 ng/ml) increased the releases of PGs, PGE2 and 6-keto-PGF1a, a PGI2 stable metabolite, and the greatest increases occurred were measured at 24 hr. Please refer to the FIG. 12, TSMCs were pretreated with KMUP-1 (10 μM), KMUP-3 (10 μM), dexamethasone (1 μM) and zaprinast (10 μM) for 20 minutes, and were further incubated in the presence of TNF-α (100 ng/ml) for 24 hrs, where the concentrations of PGE2 and 6-keto-PGF1a (stable metabolite of […]) in the culture medium were measured using PGE2 and 6-keto-PGF1a EIA assay kits (Cayman Chemical Co., Ann Arbor, Mich.) in duplicate.

COX-2 = COX-2 protein expression by immunoblotting in TNF-α-exposed TSMCs; conditions: TSMCs with TNF-α 100 ng/ml, FIG. 9(B)
Method: The Wistar rats were injected intraperitoneally with a lethal dose of pentobarbital. The tracheas were excised and cut longitudinally through the cartilage. Using a dissecting microscope, TSM strips were dissected from the surrounding parenchyma. The epithelium was removed from the luminal surface, and bands of TSM were gently separated from the underlying connective tissue. The TSM strips were then chopped into small sections (1 mm^3) and incubated in Hank's balanced salt solution (NaCl, 138 mM; NaHCO3, 4 mM; KCl, 5 mM; KH2PO4, 0.3 mM; Na2HPO4, 0.3 mM; glucose, 1.0 mM) with 0.05% elastase type IV and 0.2% collagenase type IV (Invitrogen, Carlsbad, Calif.) for 30 min at 37° C. with gentle shaking. The solution of dissociated smooth muscle cells was centrifuged (6 min at 500 g) and the pellet was resuspended in 1:1 Dulbecco's modified Eagle's medium-Ham's F-12 medium supplemented with 10% fetal bovine serum (FBS), 0.244% NaHCO3, and 1% penicillin/streptomycin. […] The medium was changed every 2-3 days.
To investigate the effects of TNF-α on COX-2 protein, TSMCs were respectively incubated with or without TNF-α (100 ng/ml) for 1, 3, 6, 9, 12, 18 and 24 hr, and the levels of COX-2 proteins were measured by immunoblotting.

[1] = in the presence of TNF-α 100 ng/ml for 9 hrs

| Structure (SMILES) | effect on TNF-α-induced increases of PKA protein (PKA) | effect on TNF-α-induced production of nitrite/nitrate (NO levels) (nitrite/nitrate (NO)) | effect on TNF-α-induced decreases of PKG protein (PKG) | effect on TNF-α-induced increases of iNOS expression (iNOS; 10 μM, FIG. 4(B)) | effect on TNF-α inhibition of sGCα1 and sGCβ1 protein expression (sGCα1 and sGCβ1 proteins) | production of cAMP compared to the control group (cAMP; 10 μM, in the absence of TNF-α) | production of cAMP compared to the control group (cAMP; [1]) | effect on TNF-α-decreased intracellular cGMP (cGMP) | effect on TNF-α-induced decreases of PKG protein expression (PKG) | effect on TNF-α-induced increases of iNOS expression (iNOS; 0.01-100 μM, FIG. 4(A)) | effect on TNF-α-induced PGE2 and 6-keto-PGF1a formation (PGE2 and 6-keto-PGF1a) | inhibition of TNF-α-induced COX-2 expression (COX-2) | effect on TNF-α-increased expression of PKA protein (PKA) | inhibition of TNF-α-induced COX-2 expression (COX-2; 10 μM pretreatment) |
| --- | --- | --- | --- | --- | --- | --- | --- | --- | --- | --- | --- | --- | --- | --- |
| Nc1ncnc2c1nc(Br)n2[C@@H]1O[C@@H]2COP(=O)(O)O[C@H]2[C@H]1O [8-Br-cAMP, reference compound] | could not affect TNF-α-induced increases of PKA protein |  |  |  |  |  |  |  |  |  |  |  |  |  |
| Nc1nc2c(nc(Br)n2[C@@H]2O[C@@H]3COP(=O)(O)O[C@H]3[C@H]2O)c(=O)[nH]1 [8-Br-cGMP, reference compound] |  | inhibited | reversed TNF-α-induced decreases of PKG protein | inhibited TNF-α-induced increases of iNOS expression to a similar extent | reversed |  |  |  |  |  |  |  |  |  |
| Cn1c(=O)c2c(ncn2CCN2CCN(c3ccccc3Cl)CC2)n(C)c1=O [KMUP-1, 7-[2-[4-(2-chlorobenzene)piperazinyl]ethyl]-1,3-dimethylxanthine] | could not affect TNF-α-induced increases of PKA protein | inhibited | reversed TNF-α-induced decreases of PKG protein | inhibited TNF-α-induced increases of iNOS expression to a similar extent | reversed | significantly increased | could not further increase | reversed to the basal level | reversed | inhibited TNF-α-induced increases of iNOS expression in a concentration-dependent manner | did not inhibit | not | not further increased |  |
| Cn1c(=O)c2c(ncn2CCN2CCN(c3ccc([N+](=O)[O-])cc3)CC2)n(C)c1=O [KMUP-3, 7-[2-[4-(4-nitrobenzene)piperazinyl]ethyl]-1,3-dimethylxanthine] | could not affect TNF-α-induced increases of PKA protein | inhibited | reversed TNF-α-induced decreases of PKG protein | inhibited TNF-α-induced increases of iNOS expression to a similar extent | reversed | significantly increased | could not further increase | reversed to the basal level | reversed | inhibited TNF-α-induced increases of iNOS expression in a concentration-dependent manner | did not inhibit | not | not further increased |  |
| CS(=O)(=O)Nc1ccc([N+](=O)[O-])cc1OC1CCCCC1 [NS-398, reference compound] |  |  |  |  |  |  |  |  |  |  | significantly inhibited |  |  | significantly inhibit |
| CC(C)NCC(O)c1ccc(O)c(O)c1 (stereo not shown) [isoproterenol, reference compound] |  |  |  |  |  | significantly increased |  |  |  |  |  |  |  |  |
| CCCOc1ccccc1-c1nc2nn[nH]c2c(=O)[nH]1 [zaprinast, reference compound] | could not affect TNF-α-induced increases of PKA protein | inhibited | reversed TNF-α-induced decreases of PKG protein | inhibited TNF-α-induced increases of iNOS expression to a similar extent | reversed |  |  | reversed to the basal level |  |  |  |  |  |  |
